Test results: patent US20150182667A1, “Composition with Biofilm Dispersal Agents” (Vanderbilt University, priority 2012, published 2015)
Converted amounts (≈) assume the structure as drawn. Like-named read-outs stand apart in the source and are kept apart here.

Columns and labels:
[1] = system: biofilm derived P. aeruginosa clinical strains (18189, 418); assay: Biofilm susceptibility, Calgary Biofilm device (MBEC plates): MBIC and viable CFU; type: cell-based, Pseudomonas aeruginosa; details: * = with 5 mM D-AA; for Biofilm (MBIC) 418: P. aeruginosa 418 biofilm; for Biofilm (MBIC) 18189: P. aeruginosa 18189 biofilm
Protocol: Biofilm susceptibility to antimicrobial agents in the presence and absence of D-AA was determined using the Calgary Biofilm device. Briefly, biofilms from overnight cultures were established as above on individual pegs of the minimum biofilm eradication concentration (MBEC) plates (Innovotech, Canada) with agitation for 48 h at 37° C. Following incubation, the lid with pegs was removed from the incubation plate, washed by re-suspending pegs into plate with wells containing 200 μl of 1×PBS, then placed into a 96-well challenge plate containing pre-diluted antibiotics with or without an […] for an additional 24 h at 37° C. Following challenge plates were washed, and the attached viable cells on PEGs within the biofilm were determined by plating serial dilutions onto blood agar plates (Remel). Corresponding minimal biofilm inhibitory concentration (MBIC) was also determined by measuring the optical density in individual wells of the challenge plate at 600 nm. The lowest concentration of antibiotic for which an optical density of <0.100 was recorded as the MBIC. For each antibiotic, the MBIC was determined in the presence or absence of a mixture of D-AA (D-Phenylalanine, D-Methionine, and D-Tryptophan) at an equimolar concentration of 5 mM. Three independent experiments were performed for each of these assays, with a minimum of 3 replicates.

[2] = system: planktonic P. aeruginosa clinical strains (18189, 418); assay: MIC by CLSI broth microdilution, planktonic bacteria; type: cell-based, Pseudomonas aeruginosa; details: * = with 5 mM D-AA; for MIC: Pseudomonas aeruginosa
Protocol: Overnight cultures of bacterial strains were diluted to a final concentration of 5×10^5 CFU/ml in MHB-II. The resulting bacterial suspension was aliquoted (100 μL) into polystyrene round-bottom 96-well plates containing 100 μL of a 2× concentration of a previously serially diluted (1:2) antibiotic. Each antimicrobial tested was serially diluted 10 times. Following the addition of bacteria, the microtiter plate was covered and was incubated under stationary conditions at 37° C. in the presence of 1× antibiotics. […] MICs of antibiotics were determined in triplicate according to the Clinical and Laboratory Standards Institute (CLSI) broth microdilution as described by the performance standards for antimicrobial susceptibility testing (M100-S22, January 2012).

[3] = Release of D-AAs from PUR scaffolds in PBS (HPLC); type: physicochemical; details: for burst release: day 1, PUR scaffold with 10 wt % 1:1:1 D-Met:D-Pro:D-Trp; for b parameter of Weibull model: fit of D-AA release data
Protocol: Also, kinetic release assays were performed on the PUR scaffolds by incorporating 10 wt % of a 1:1:1 mixture of D-Tr:D-Pro:D-Met incubated in PBS for up to 8 weeks. The medium was be sampled twice weekly and analyzed for D-AAs by HPLC.
PUR scaffolds incorporating 10 wt % of a 1:1:1 mixture of D-Met:D-Pro:D-Trp were incubated in PBS at 37° C. under static conditions for up to 8 weeks. This mixture was evaluated in vitro, in vivo and in the release kinetics tests to account for potential interactions between D-AAs during release. The medium was sampled on days 1, 2, 4, 7, 10, 14, 21, and 28 and analyzed for D-AAs by HPLC using a system equipped with a Waters 1525 binary pump and a 2487 Dual-Absorbance Detector at 200 nm. Samples of released D-AAs were eluted through an Atlantis HILIC Silica column (5 μm particle size, 4.6 mm diameter×250 mm length) using an isocratic mobile phase flowing at 1 mL/min. The mobile phase contained 2.5 mM potassium dihydrogen phosphate with pH=2.85 (A) and Acetonitrile (B) at a ratio of A25:B75. The column oven temperature was maintained at 30° C. Sample concentration was determined in reference to an external standard curve using the Waters Breeze system. Standard curves were prepared in the following concentration ranges: (1) 7.8 μg/mL to 1 mg/mL for D-Met and D-Pro and (2) […] to 100 μg/mL for D-Trp.

[4] = system: S. aureus clinical isolates biofilms; assay: Biofilm dispersal and prevention, crystal violet assay (Example 3); type: cell-based; details: for dispersal of established biofilms (biofilm biomass): panel of clinical isolates of methicillin-resistant S. aureus (n=5), 5 mM, 24 h, FIGS. 8A, 8C; for biofilm dispersal in pre-screening of eight individual D-AAs: pre-formed biofilms of four clinical isolates, 0.001-50 mM, FIG. 7
Protocol: Like in Example 1, biofilm formation was assessed under static conditions using polystyrene 96-well plates (Corning, Inc.). Overnight bacterial cultures were diluted to an OD600 of 0.1 in TSB (˜10^7 CFU/mL), and 20 μL were added to individual wells filled with 180 μL of media and incubated at 37° C. for 48 h. To assess the biofilm dispersal activity of D-AAs, the culture medium from biofilms was removed after 48 h and 200 μL fresh medium containing either an individual D-AA or an equimolar mixture of D-AAs (1:1:1: D-Met:D-Pro:D-Trp) were added at the indicated concentrations. After treatment with D-AA(s) for 24 h, plates were gently washed with 1× phosphate buffered saline (PBS) to remove unattached cells, stained with 0.1% (w/v) crystal violet (Sigma Aldrich) for 10 min, rinsed with PBS, and then solubilized with 80% (v/v) ethanol. Biofilm biomass was determined by measuring the absorbance of solubilized stain at 570 nm using a microtiter plate reader. For assays measuring the ability of D-AA to block biofilm formation, cells were grown under biofilm conditions as above in the presence of media containing D-AAs. Representative images of the plates of CV-stained biofilms following treatment with D-AA prior to solubilization were taken using a digital camera. All assays were repeated in triplicate with a minimum of four technical replicates.

[5] = system: S. aureus clinical isolate biofilms; assay: Biofilm dispersal and prevention, crystal violet 96-well assay (Example 1); type: cell-based, Staphylococcus aureus; details: 5 mM; for biofilm dispersal against panel of clinical isolates (biofilm biomass OD570): S. aureus clinical isolates, FIGS. 3A, 3C; for biofilm dispersal in pre-screening of eight D-AAs: pre-formed S. aureus biofilms, FIG. 1
Protocol: (§1) Biofilm formation was performed under static conditions in polystyrene 96-well plates (Corning, Inc., Corning, N.Y.). Briefly, overnight bacterial cultures were diluted to an OD600 of 0.1 in CA-MHB and 10 μL was added to individual wells filled with 190 μl of media and incubated at 37° C. for 48 h without shaking for biofilm growth. Following incubation, culture media was removed and 200 μL media containing individual D-AA at concentrations of 5 mM-1 nM was added. Plates were incubated for an additional 24 h at 37° C. After treatment, plates were gently washed with 1× phosphate buffered saline (PBS; pH 7.4) to remove non-adherent bacteria. Biofilms (i.e. attached cells) were then stained with 0.1% (w/v) crystal violet for 10 min, washed, followed by solubilization of crystal violet with 33% (v/v) acetic acid for 10 min. Biofilm biomass was determined by measuring the absorbance at 570 nm using a microtiter plate reader. For assays measuring the ability of D-AA to block biofilm formation, cells were grown under biofilm conditions as above in the presence of media containing D-AA. Three independent experiments with a minimum of 4 replicates were performed for each experimental assay. Representative images of the plates of CV stained biofilms following treatment with D-AA, prior to solubilization, were taken using a digital camera.

human dermal fibroblasts = assay: CellTiter-Fluor cell viability assay; type: cell-based
Protocol: (§2) To observe the cellular viability of PUR/D-AA composites, human dermal fibroblasts and human osteoblasts (PromoCell) were maintained in Dulbecco's Modified Eagle Medium (DMEM; Invitrogen) supplemented with 10% Fetal Bovine Serum (FBS) and 1× penicillin/streptomycin. Human epidermal keratinocytes (HEK-001; ATCC CRL-2404) were maintained in Keratinocyte-serum free media (GIBCO) supplemented with 5 ng/mL human recombinant EGF and 2 mM L-glutamine. All cell lines were cultured at 37° C. in 5% CO2. Prior to each assay cells were seeded at 100% confluence in black-clear bottom 96-well plates. After 24 h, cells were exposed to media containing D-AA, 50 mM-1 nM, and incubated for 24-48 h at 37° C. in 5% CO2. Following treatment, cells were washed, resuspended in 100 μL of sterile saline and viability was determined using the CellTiter-Flour Cell Viability Assay (Promega) following the manufacturer's instructions. Viability assays were performed in triplicate with a minimum of 3 replicates. Viability was reported as the percentage of viable cells relative to untreated controls.
(§3) Human dermal fibroblasts and osteoblasts (PromoCell, Heidelberg, Germany) were maintained in Dulbecco's Modified Eagle Medium (DMEM; Invitrogen, Grand Island, N.Y.) supplemented with 10% Fetal Bovine Serum (FBS) and 1× penicillin/streptomycin at 37° C. in 5% CO2. Prior to each assay, cells were seeded at 100% confluence in black-clear bottom 96-well plates. After 24 h cells were exposed to media containing D-AA (1 nM-50 mM) and incubated for 24 h. Following treatment, cells were washed, re-suspended in 100 μL of sterile saline, and assessed for viability using the CellTiter-Fluor Cell Viability Assay (Promega, Madison, Wis.) following the manufacturer's instructions. Viability assays were performed in triplicate with a minimum of four replicates. Viability was reported as the percentage of viable cells relative to untreated controls.

[6] = system: P. aeruginosa clinical isolate biofilms; assay: Biofilm dispersal and prevention, crystal violet 96-well assay (Example 1); type: cell-based, Pseudomonas aeruginosa; details: 5 mM; for biofilm dispersal against panel of clinical isolates (biofilm biomass OD570): P. aeruginosa clinical isolates, FIGS. 3A, 3C; for biofilm dispersal in pre-screening of eight D-AAs: pre-formed P. aeruginosa biofilms, FIG. 1
Protocol: as §1

human osteoblasts = assay: CellTiter-Fluor cell viability assay; type: cell-based; details: 24 h
Protocol: as §2, §3

S. aureus Xen 36A = assay: Contaminated 6-mm excisional cutaneous wounds in mice; type: in vivo, C57BL/6 mice; details: 2×10^6 CFU, collagen gel with 5% D-Trp, 1 and 3 days, not shown
Protocol: 6-mm excisional wounds in C57BL/6 mice (6-8 weeks), which had previously been shaved and sterilized, were made. The mice were contaminated with 2×10^6 or 2×10^7 CFU S. aureus Xen 36A (Perkin Elmer, Waltham, Mass.). Approximately 2-3 minutes following exposure to bacteria, collagen gels (hydrogel, HG) with and without 5% D-Trp were applied to the wounds for about 5 minutes before applying a Tegaderm bandage (3M, St. Paul, Minn.). Wounds were monitored daily for up to 3 days. At 1 and 3 days post-infection mice were evaluated using the IVIS (to visualized bioluminescent bacteria within wounds) and the wound tissues were harvested, homogenized, and plated on blood agar to enumerate bacteria within wound (CFU/mL/g tissue).

[7] = Release of D-Trp from collagen gel; type: physicochemical; details: collagen gel with 5% D-Trp
[8] = P. aeruginosa 418, read-out: Planktonic (MIC) 418
[9] = P. aeruginosa 18189, read-out: Planktonic (MIC) 18189
[10] = PUR scaffold with 10 wt % D-AA mixture, PBS 37° C.

| SMILES | Biofilm (MBIC) 418 [1] [µg/mL] | Biofilm (MBIC) 18189 [1] [µg/mL] | Planktonic (MIC) 418 ([2]; P. aeruginosa 418) [µg/mL] | Planktonic (MIC) 18189 ([2]; P. aeruginosa 18189) [µg/mL] | MIC [2, 8] [µg/mL] | MIC [2, 9] [µg/mL] | burst release ([3]; PBS 37° C.) [%] | b parameter of Weibull model [3] | dispersal of established biofilms (biofilm biomass) [4] | biofilm dispersal in pre-screening of eight individual D-AAs [4] | biofilm dispersal against panel of clinical isolates (biofilm biomass OD570) [5] | biofilm dispersal in pre-screening of eight D-AAs [5] | biofilm dispersal against panel of clinical isolates (biofilm biomass OD570) [6] | biofilm dispersal in pre-screening of eight D-AAs [6] | also measured |
| --- | --- | --- | --- | --- | --- | --- | --- | --- | --- | --- | --- | --- | --- | --- | --- |
| NCC[C@H](O)C(=O)N[C@@H]1C[C@H](N)[C@@H](O[C@H]2O[C@H](CN)[C@@H](O)[C@H](O)[C@H]2O)[C@H](O)[C@H]1O[C@H]1O[C@H](CO)[C@@H](O)[C@H](N)[C@H]1O [AMK, Amikacin] | >256 | >256 | 16 | 16 | 16 (≈ 27.3 µM) | 16 (≈ 27.3 µM) |  |  |  |  |  |  |  |  |  |
| CSCC[C@@H](N)C(=O)O [D-Met, D-methionine] |  |  |  |  |  |  | 60 | 0.56 | effective at dispersing established biofilms | effective at dispersing biofilms | capable of significantly dispersing biofilm formation | relatively more effective at dispersing biofilms | capable of significantly dispersing biofilm formation | relatively more effective at dispersing biofilms | cumulative release by day 14 [3, 10]: ~100%; cytotoxicity (human dermal fibroblasts; human fibroblasts, higher concentrations): cytotoxicity was also observed |
| N[C@H](Cc1c[nH]c2ccccc12)C(=O)O [D-Trp, D-tryptophan] |  |  |  |  |  |  | 25 | 0.21 | effective at dispersing established biofilms | effective at dispersing biofilms | capable of significantly dispersing biofilm formation | relatively more effective at dispersing biofilms | capable of significantly dispersing biofilm formation | relatively more effective at dispersing biofilms | fraction released at 4 weeks ([3]; PUR scaffold with 10 wt % D-AA mixture): less than 40%; cumulative release by day 28 [3, 10]: 44%; cytotoxicity (human osteoblasts; 50 and 25 mM): toxic; viability (percentage of viable cells relative to untreated controls) (human osteoblasts; concentrations exceeding 12.5 mM): ~60%; cytotoxicity (human osteoblasts; effective range 1-5 mM): minimal cytotoxicity; cytotoxicity (human dermal fibroblasts; dermal fibroblasts, 50 and 25 mM, 24 h): toxic; viability (percentage of viable cells relative to untreated controls) (human dermal fibroblasts; dermal fibroblasts, concentrations exceeding 12.5 mM, 24 h): ~60%; cytotoxicity (human dermal fibroblasts; dermal fibroblasts, effective range 1-5 mM, 24 h): minimal cytotoxicity; wound contamination (bioluminescence imaging and bacterial counts) (S. aureus Xen 36A): reduced contamination; release in 1 day [7]: about 80%; time to complete release [7]: ≤ 3 days |
| C[C@@H](O)[C@H]1C(=O)N2C(C(=O)O)=C(SCCN=CN)C[C@H]12 [IMI, Imipenem] | >128 | >128 | 64 | 128 | 128 (≈ 428 µM) | 64 (≈ 214 µM) |  |  |  |  |  |  |  |  |  |
